Assay results reported in patent US20230123334A1, “AMINO LIPID COMPOUND, PREPARATION METHOD THEREFOR, AND APPLICATION THEREOF” (SHENZHEN SHENXIN BIOTECHNOLOGY CO., LTD., priority 2020, published 2023).

Legend:
HEK293 cells [1] = assay: Preliminary screening as DNA vectors, GFP transfection of HEK293 cells; assay type: cell-based; conditions: HEK293 cells; lipid/DOPE liposome with 75 ng plasmid DNA (psin-EGFP-IRES-Puro); number of cells expressing GFP divided by total number of nuclei (Hoechst)
Outline: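 HEK293 cells in DMEM/10% FBS transfected with 75 ng EGFP plasmid per well complexed with amino lipid/DOPE liposomes in pH 5.6 sodium acetate. Hoechst nuclear stain added 20-24 h post-transfection, then cells cultured another 20-24 h. Confocal imaging gives GFP-positive cells as % of total nuclei.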

HEK293 cells [2] = assay: Preliminary screening as mRNA vectors, EGFP mRNA transfection of HEK293 cells; assay type: cell-based; conditions: HEK293 cells, 96-well plates, EGFP mRNA 50 ng per well; percentage of GFP fluorescent cells relative to total number of cells (Hoechst)
Outline: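 HEK293 cells in DMEM plus 10% FBS transfected in 96-well format with 50 ng EGFP mRNA per well; Lipofectamine2000 served as positive control. Read-out is the percentage of GFP-fluorescent cells among total cells, counted by Hoechst nuclear stain.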

SMILES	Absolute DNA transfection efficiency in HEK293 cells (HEK293 cells [1])	Absolute mRNA transfection efficiency in HEK293 cells (HEK293 cells [2])
CCCCCCCCCCCCCCCCCCSc1nc(NCCN2CCN(C)CC2)nc(SCCCCCCCCCCC)n1 [Compound S11S18D5]	1.7%	3.8%
CCCCCCCCCCCCCCSc1nc(NCCN2CCCCC2)nc(SCCCCCCCCCC)n1 [Compound S10S14D4]	5.9%	0.2%
CCCCCCCCCNc1nc(NCCCCCCCCC)nc(NCCN2CCOCC2)n1 [Compound N9N9D2]	0.0%	0.1%
CCCCCCCCCCCCCCSc1nc(NCCN(CC)CC)nc(SCCCCCCCCCC)n1 [Compound S10S14D7]	2.6%	1.3%
CCCCCCCCCCCCCCCNc1nc(NCCCCCCCCCCCCC)nc(NCCCN(C)C)n1 [Compound N13N15D6]	0.3%	0.0%
CCCCCCNc1nc(NCCCCCC)nc(NCCN(CC)CC)n1 [Compound N6N6D7]	0.0%	0.0%
CCCCCCCCCCCCN(CCCCCCCCCCCC)c1nc(NCCCCCCCC)nc(NCCCN2CCOCC2)n1 [N8^2N12D8]	0.2%	2.0%
CCCCCCCCCCCCCCCNc1nc(NCCCCCCCCCCCCCCC)nc(NCC2CCN(C)CC2)n1 [Compound N15N15D10]	1.1%	4.2%
CCCCCCCCCCCCCNc1nc(NCCCCCC)nc(NCCN(C)C)n1 [Compound N6N13D1]	0.0%	0.0%
CCCCCCCCCCCNc1nc(NCCCCCCCC)nc(NCCCN(C)C)n1 [Compound N8N11D6]	0.3%	0.1%
CCCCCCCCCCCCCCCNc1nc(NCCCCCCCCCCC)nc(NCCCN2CCN(C)CC2)n1 [Compound N11N15D9]	0.1%	0.3%
CCCCCCCCCCCCNc1nc(NCCCCCCCCCCCC)nc(NCC2CCN(C)CC2)n1 [Compound N12N12D10]	0.5%	0.6%
CCCCCCCCCCCCCCCCSc1nc(NCCN2CCN(C)CC2)nc(SCCCCCCCCCCCCCC)n1 [Compound S14S16D5]	0.1%	0.2%
CCCCCCCCCCCCCCCSc1nc(NCCN2CCOCC2)nc(SCCCCCCCCCCCCCCC)n1 [Compound S15S15D2]	0.0%	0.0%
CCCCCCCCCCCCN(CCCCCCCCCCCC)c1nc(NCCCCCCCCC)nc(NCCCN2CCN(C)CC2)n1 [N9^2N12D9]	0.0%	3.9%
CCCCCCCCCCCCCCSc1nc(NCCN(CC)CC)nc(SCCCCCCCCCCC)n1 [Compound S11S14D7]	2.9%	0.7%
CCCCCCCCCCCCCCCCCCNc1nc(NCCCCCCCC)nc(NCCN2CCCCC2)n1 [Compound N8N18D4]	8.2%	29.2%
CCCCCCCCCCCCCCCNc1nc(NCCCCCC)nc(NCCN2CCCCC2)n1 [Compound N6N15D4]	0.1%	0.0%
CCCCCCCCCCCCCCCSc1nc(NCCN2CCOCC2)nc(SCCCCCCCCCC)n1 [Compound S10S15D2]	7.7%	0.7%
CCCCCCCCCCCCCNc1nc(NCCCCCCCCCCCC)nc(NCCN2CCOCC2)n1 [Compound N12N13D2]	0.1%	0.0%
CCCCCCCCCCCCN(CCCCCCCCCCCC)c1nc(NCCCN2CCN(C)CC2)nc(N(CCCCCCCCCCCC)CCCCCCCCCCCC)n1 [2N12^2N12D9]	0.2%	0.0%
CCCCCCCCCCCCCNc1nc(NCCCN2CCN(C)CC2)nc(N(CCCCCCCCCCCC)CCCCCCCCCCCC)n1 [N13^2N12D9]	1.7%	2.3%
CCCCCCCCCCCCCCCNc1nc(NCCCCCCCCC)nc(NCCCN2CCN(C)CC2)n1 [Compound N9N15D9]	0.9%	1.1%
